Data on 16 compounds can be found in ChEMBL document CHEMBL1201862, “PubChem BioAssay data set” (2004).

The source made the active and inactive calls. Where only a bound is given, the exact number is not on record here.

One data set addresses SUMO-activating enzyme (Homo sapiens, UniProt Q9UBT2). Put plainly: blockers of UBC9-mediated SUMO conjugation – biochemical, AlphaScreen, SUMOylation inhibitor project, confirmation (AID 2018). It is filed as functional. Background: Alpha assays give light when donor and acceptor beads are brought close together.
A further data set concerns the target T1, Protein RecA (Mycobacterium tuberculosis, UniProt P9WHJ3).
T1 sequence (P9WHJ3 whole entry): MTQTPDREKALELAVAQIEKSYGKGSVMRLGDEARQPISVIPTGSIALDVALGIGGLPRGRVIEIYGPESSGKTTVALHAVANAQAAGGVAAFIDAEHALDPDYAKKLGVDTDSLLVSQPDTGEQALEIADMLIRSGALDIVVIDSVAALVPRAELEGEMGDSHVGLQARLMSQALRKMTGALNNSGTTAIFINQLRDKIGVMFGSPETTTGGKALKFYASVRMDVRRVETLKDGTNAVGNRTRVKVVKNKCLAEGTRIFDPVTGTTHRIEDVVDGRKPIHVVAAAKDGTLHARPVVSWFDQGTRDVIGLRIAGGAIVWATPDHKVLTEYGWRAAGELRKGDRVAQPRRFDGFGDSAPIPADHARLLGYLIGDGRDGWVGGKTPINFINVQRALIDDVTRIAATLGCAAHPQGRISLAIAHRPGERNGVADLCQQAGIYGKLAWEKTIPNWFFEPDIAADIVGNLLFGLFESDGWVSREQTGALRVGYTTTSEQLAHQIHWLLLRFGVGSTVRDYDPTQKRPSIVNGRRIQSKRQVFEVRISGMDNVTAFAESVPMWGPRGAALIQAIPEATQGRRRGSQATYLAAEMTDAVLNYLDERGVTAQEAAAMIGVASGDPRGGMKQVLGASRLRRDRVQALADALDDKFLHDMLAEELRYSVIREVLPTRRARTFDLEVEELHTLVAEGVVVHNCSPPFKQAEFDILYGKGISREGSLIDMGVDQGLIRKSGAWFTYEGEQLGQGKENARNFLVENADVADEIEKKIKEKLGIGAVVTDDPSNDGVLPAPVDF
The experiment in a line: Fluorescence Cell-Free Homogeneous Dose Retest to Identify Inhibitors of RecA-Intein Splicing Activity. [Related pubchem assays (depositor defined):AID2097, AID2223, AID489010, AID492950]. Type of data set: functional.

The next data set concerns Streptococcus. Put plainly: GAS UMAA2166 growth inhibition – luminescence, BacTiterGlo, counter-screen for streptokinase expression inhibitor project, dose response (AID 1915).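 Note: potency for reduction of bacterial viability or growth.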 Type of data set: functional, organism-based. Background: The purpose of a counterscreen is to sort out artefacts and off-target activity.
The target in data set [1] is T2, Replicative DNA helicase DnaB (Mycobacterium tuberculosis, UniProt P9WMR3).
T2 sequence (P9WMR3 whole entry): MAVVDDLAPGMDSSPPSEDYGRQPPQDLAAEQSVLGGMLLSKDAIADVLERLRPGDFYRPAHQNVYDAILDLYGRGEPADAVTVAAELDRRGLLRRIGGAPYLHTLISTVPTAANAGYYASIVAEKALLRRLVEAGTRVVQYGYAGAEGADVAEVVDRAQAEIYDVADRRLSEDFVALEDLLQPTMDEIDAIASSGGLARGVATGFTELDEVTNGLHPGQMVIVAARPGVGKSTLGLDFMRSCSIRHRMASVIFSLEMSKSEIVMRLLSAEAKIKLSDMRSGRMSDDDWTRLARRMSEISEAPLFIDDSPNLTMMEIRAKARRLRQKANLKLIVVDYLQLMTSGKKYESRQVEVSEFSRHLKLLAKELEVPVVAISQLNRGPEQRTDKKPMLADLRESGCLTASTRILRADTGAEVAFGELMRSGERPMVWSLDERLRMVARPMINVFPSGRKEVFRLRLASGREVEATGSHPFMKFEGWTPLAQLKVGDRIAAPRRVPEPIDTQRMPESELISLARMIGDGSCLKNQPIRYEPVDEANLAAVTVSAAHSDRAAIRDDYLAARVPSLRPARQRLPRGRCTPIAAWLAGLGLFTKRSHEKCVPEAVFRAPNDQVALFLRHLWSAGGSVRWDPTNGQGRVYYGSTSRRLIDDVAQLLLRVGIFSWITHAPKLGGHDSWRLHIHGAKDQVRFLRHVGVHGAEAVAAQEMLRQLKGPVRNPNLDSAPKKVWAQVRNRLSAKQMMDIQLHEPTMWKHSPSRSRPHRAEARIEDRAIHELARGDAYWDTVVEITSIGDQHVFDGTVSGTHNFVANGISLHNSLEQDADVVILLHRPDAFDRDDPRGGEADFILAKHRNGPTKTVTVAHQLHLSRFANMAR
The experiment in a line: DnaB intein splicing inhibitors, dose response, biochemical, cell-free fluorescence (AID 449749). Type of data set: functional.

For a further data set, the target named is Nonstructural protein 1 (Influenza A virus, UniProt Q194T2). It is filed as functional, Influenza A virus (A/California/07/2009(H1N1)).
For data set [2], the system named is Streptococcus sp. 'group A'. The experiment in a line: Streptococcus pyogenes SK(-)GAS viability under kanamycin – luminescence, BacTiterGlo, confirmation, counter-screen for streptokinase expression inhibitor project, dose response (AID 1900). Type of data set: functional, organism-based.
Data set [3] concerns the target T3, DNA repair and recombination protein RAD54-like (Homo sapiens, UniProt Q92698).
T3 sequence (Q92698 whole entry): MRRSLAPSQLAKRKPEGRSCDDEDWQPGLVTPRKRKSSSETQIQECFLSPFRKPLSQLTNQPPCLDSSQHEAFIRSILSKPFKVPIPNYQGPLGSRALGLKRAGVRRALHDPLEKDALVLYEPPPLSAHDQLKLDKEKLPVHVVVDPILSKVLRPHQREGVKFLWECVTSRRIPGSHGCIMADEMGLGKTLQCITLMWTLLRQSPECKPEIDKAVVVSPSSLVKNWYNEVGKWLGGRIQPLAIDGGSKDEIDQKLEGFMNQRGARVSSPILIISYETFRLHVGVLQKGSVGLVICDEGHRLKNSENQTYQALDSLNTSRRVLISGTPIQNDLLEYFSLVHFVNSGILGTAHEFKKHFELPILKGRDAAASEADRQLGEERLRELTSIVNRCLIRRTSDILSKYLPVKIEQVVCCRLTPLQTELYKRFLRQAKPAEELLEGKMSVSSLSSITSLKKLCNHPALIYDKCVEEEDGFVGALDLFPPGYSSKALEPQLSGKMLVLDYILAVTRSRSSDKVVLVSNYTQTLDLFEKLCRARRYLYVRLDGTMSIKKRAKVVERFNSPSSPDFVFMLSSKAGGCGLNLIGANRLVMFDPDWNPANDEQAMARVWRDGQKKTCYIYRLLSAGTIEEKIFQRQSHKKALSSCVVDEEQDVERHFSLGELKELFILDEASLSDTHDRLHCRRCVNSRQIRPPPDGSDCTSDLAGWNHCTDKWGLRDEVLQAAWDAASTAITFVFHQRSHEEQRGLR
The experiment in a line: RAD54 Holliday junction migration blockers – biochemical, fluorescence, cherry-picked samples, dose series, confirmation (AID 651657). Type of data set: functional.

The target in data set [4] is Dual specificity tyrosine-phosphorylation-regulated kinase 1A (Rattus norvegicus, UniProt Q63470). Type of data set: biochemical, Homo sapiens.
Another data set concerns Vero. The experiment in a line: cells. It is filed as functional. Particulars: Chlorocebus sabaeus.
Another data set addresses T4, Cytochrome P450 1A2 (Homo sapiens, UniProt P05177).
T4 sequence (P05177 whole entry): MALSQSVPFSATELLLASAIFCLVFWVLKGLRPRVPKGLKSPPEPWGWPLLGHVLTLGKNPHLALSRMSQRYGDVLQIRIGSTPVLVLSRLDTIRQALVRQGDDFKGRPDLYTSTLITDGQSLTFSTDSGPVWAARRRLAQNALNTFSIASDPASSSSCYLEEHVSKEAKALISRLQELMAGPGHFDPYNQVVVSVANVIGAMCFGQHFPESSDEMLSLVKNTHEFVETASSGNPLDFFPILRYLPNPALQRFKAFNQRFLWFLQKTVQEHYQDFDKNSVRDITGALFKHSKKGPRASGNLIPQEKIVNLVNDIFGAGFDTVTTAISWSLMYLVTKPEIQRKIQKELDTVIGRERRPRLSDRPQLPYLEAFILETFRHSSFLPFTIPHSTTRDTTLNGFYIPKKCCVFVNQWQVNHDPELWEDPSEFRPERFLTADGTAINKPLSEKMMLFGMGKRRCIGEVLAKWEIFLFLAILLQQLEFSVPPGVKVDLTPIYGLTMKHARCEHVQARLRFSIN

In a further data set the target is Cytochrome P450 2D6 (Homo sapiens, UniProt P10635).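 Note: CYP2D6 member of a cytochrome P450 panel assay.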
The next data set deals with H4. Put plainly: Luminescence Cell-Based Dose Response HTS to Identify Activators of 5'UTR Stem-Loop Driven Prion Protein mRNA Translation in H4 Neuroglioblastoma Cells. [Related pubchem assays: 1829 (Project Summary), 1814 (Primary HTS)]. As to conditions: Homo sapiens. Type of data set: functional.
Data set [5] can be described thus: Luminescence Cell-Based Dose Confirmation HTS to Identify Activators of 5'UTR Stem-Loop Driven Alpha-Synuclein mRNA Translation in H4 Neuroglioblastoma Cells. [Related pubchem assays: 1829 (Project Summary), 1814 (Primary HTS)]. It is filed as functional.
The nature of data set [6]: Luminescence Cell-Based Dose Response HTS to Identify Activators of Luciferase Translation or Activity in H4 […] Cells. [Related pubchem assays: 1829 (Project Summary), 1814 (Primary HTS)]. It is filed as functional.
For a further data set, the target named is Cytochrome P450 2C9 (Homo sapiens, UniProt P11712).
In another data set the target is Cytochrome P450 2C19 (Homo sapiens, UniProt P33261). The experiment in a line: Cytochrome panel assay with activity outcomes. Panel member name: p450-cyp2c19 Compounds with AC50 equal or less than 10 uM are considered active. Type of data set: functional.
The test system of data set [7] is BJ. Put plainly: BJ-TERT fibroblast viability loss – cell-based, RAS-independent, luminescence, dose response (AID 1933). It is filed as functional. Particulars: Homo sapiens.
Data set [8] in a line: HEK-293T viability loss after treatment – luminescence, T-cell screen hits, cytotoxicity control for TCR NF-kB inhibitor project, dose response (AID 489026).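 Note: cells exposed to compound about 14 hours before the viability readout.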 It is filed as functional, cell-based.
Data set [9] in a line: DRD fibroblast viability loss – cell-based, non-viral oncogenic, luminescence, dose response (AID 1934). It is filed as functional. Particulars: Homo sapiens.
Data set [10] deals with BJ. The experiment in a line: cells. Type of data set: functional, cell-based. As to conditions: Homo sapiens.

Chain of SUMO-activating enzyme (Q9UBE0 whole entry): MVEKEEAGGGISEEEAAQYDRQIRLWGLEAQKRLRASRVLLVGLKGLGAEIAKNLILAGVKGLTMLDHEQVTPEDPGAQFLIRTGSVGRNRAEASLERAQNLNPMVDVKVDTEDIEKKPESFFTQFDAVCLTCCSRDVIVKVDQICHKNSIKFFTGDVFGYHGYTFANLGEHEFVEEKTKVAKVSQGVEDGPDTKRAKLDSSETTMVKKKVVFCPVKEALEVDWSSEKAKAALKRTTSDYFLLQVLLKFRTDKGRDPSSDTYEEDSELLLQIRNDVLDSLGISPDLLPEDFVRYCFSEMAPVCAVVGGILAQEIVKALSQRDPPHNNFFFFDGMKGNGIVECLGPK
Chain of SUMO-activating enzyme (Q9UBT2 whole entry): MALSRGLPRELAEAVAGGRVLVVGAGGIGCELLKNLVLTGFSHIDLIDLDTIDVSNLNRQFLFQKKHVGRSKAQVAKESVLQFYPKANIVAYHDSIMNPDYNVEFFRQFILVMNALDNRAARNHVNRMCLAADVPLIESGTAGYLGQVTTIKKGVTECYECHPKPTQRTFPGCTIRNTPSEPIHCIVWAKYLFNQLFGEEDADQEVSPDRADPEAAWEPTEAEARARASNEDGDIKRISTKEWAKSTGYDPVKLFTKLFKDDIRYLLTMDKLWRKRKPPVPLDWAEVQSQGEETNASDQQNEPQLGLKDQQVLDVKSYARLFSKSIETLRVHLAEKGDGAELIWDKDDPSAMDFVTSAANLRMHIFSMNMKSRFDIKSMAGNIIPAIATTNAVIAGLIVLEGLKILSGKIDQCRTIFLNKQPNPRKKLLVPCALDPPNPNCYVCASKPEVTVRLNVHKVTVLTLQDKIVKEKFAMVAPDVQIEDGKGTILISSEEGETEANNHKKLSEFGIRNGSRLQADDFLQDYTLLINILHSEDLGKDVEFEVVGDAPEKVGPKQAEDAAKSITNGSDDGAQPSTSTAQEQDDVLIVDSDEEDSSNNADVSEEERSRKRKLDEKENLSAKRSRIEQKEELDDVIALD
Chain of Cytochrome P450 2C19 (P33261 whole entry): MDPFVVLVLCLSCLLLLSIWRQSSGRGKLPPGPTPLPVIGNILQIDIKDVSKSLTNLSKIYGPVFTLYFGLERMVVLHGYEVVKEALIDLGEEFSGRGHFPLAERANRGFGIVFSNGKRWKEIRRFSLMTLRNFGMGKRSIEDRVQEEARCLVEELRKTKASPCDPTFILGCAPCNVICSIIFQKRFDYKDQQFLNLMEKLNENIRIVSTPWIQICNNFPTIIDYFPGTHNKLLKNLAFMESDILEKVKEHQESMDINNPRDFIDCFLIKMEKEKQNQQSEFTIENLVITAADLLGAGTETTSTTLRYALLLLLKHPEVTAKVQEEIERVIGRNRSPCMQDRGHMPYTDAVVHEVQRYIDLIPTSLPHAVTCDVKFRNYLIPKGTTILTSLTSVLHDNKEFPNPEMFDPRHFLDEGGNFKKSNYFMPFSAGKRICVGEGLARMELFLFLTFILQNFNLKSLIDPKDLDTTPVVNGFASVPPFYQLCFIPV
Chain of Cytochrome P450 2D6 (P10635 whole entry): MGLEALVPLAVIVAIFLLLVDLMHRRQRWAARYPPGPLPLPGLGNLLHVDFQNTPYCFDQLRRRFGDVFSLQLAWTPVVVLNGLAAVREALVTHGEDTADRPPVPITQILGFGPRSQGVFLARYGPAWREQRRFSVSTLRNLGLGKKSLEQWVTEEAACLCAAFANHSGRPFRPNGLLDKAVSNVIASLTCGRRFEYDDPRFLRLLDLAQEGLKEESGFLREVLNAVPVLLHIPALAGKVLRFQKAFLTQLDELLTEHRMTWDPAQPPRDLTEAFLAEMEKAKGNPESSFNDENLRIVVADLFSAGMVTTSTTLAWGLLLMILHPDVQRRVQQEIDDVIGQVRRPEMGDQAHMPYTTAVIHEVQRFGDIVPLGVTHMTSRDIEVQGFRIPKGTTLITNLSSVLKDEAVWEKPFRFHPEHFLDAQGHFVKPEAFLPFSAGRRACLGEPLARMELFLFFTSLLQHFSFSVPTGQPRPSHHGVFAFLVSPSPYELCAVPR
Chain of Cytochrome P450 2C9 (P11712 whole entry): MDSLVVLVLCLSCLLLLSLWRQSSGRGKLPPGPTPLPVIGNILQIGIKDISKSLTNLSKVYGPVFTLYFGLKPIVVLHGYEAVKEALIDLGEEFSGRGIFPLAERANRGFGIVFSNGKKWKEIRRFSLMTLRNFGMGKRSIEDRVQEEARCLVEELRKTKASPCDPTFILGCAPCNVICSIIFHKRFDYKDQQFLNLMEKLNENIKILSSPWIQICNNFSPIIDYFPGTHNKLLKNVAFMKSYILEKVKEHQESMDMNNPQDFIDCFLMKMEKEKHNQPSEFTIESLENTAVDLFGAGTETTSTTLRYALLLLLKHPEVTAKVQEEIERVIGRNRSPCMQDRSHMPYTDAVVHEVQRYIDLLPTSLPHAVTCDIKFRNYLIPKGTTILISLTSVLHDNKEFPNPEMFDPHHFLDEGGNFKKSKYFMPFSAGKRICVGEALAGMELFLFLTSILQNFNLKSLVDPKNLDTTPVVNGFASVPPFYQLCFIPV
Chain of Nonstructural protein 1 (Q194T2 whole entry): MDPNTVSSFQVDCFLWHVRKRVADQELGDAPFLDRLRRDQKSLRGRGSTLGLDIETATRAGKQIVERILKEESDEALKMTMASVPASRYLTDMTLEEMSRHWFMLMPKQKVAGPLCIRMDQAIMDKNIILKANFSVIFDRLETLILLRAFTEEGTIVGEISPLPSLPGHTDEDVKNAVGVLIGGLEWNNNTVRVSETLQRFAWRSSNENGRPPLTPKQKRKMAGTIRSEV

As to `Cc1nn(-c2ccccc2)c2sc(C(=O)NNC(=O)COc3ccccc3)cc12`, the IC50 (as a rule, the concentration needed to halve the response being measured) at SUMO-activating enzyme is 33.6 µM (active).
As to `O=C(N/N=C\c1cn[nH]c1-c1ccc(Cl)cc1)c1cccs1`, on SUMO-activating enzyme, the IC50 is > 100 µM (inactive).
`O=C(NC(=S)NNC(=O)c1ccccc1O)c1ccco1`: the results for the concentration for a half-maximal effect (EC50) (at Protein RecA; with Streptococcus; in data set [2]) were 114 µM (inconclusive), 7.67 µM (active) and 3.27 µM (active), respectively. In data set [1], the AC50 (usually the concentration giving half of the maximal activity seen) was 95.2 µM (active). In addition, the IC50 at Nonstructural protein 1 was 8.7 µM (active).
Take `CCNCCNC(=O)c1c(O)c2cccc3c2n(c1=O)CCC3`: in data set [3], the AC50 was 86.3 µM (active).
Consider `O=c1c(O[C@@H]2O[C@H](CO)C(O)C2O)c(-c2ccc(O)c(O)c2)oc2cc(O)cc(O)c12` (stereo partly drawn), for which, in [4], the AC50 is 18 µM (active).
`CC1CCC(C(C)C)C2=C1C(C#N)(C#N)C(C#N)(C#N)C(c1ccccc1)N2` (stereo not drawn): the CC50 (usually the concentration giving 50% cytotoxicity) in the data set on Vero was 16.7 µM (active). Further, the AC50 in [4] was 5.69 µM (active).
For the compound `CN(C)c1ncnc2c1ncn2CCn1cnc2c(N(C)C)ncnc21`, the concentration at half-maximal activity (AC50) at Cytochrome P450 1A2 is 6.31 µM (inconclusive); at Cytochrome P450 2D6, “inconclusive”.
Take `CCc1ccc2nc(NC(=O)C3CSC4(C)CCC(=O)N34)sc2c1` (stereo not drawn): the concentration for a half-maximal effect (EC50) (as a rule, the concentration giving half of the maximal effect) is 6.99 µM (active) in the data set on H4, > 120 µM (not active) in data set [5] and 19.6 µM (active) in data set [6]. In [4], the AC50 was 7.62 µM (active).
Turning to `Cc1ccc(C(=O)Nc2sc3c(c2C(=O)NCc2ccco2)CCCC3)cc1`, the 50% inhibitory concentration (IC50) on SUMO-activating enzyme is 29.9 µM (active).
`COc1ccc(/C=N/N(C(C)=O)c2nc(-c3ccc(C)cc3)cs2)cc1`: the AC50 on Cytochrome P450 2C9 is 3.16 µM (inconclusive); on Cytochrome P450 2C19 (read-out: AC50), 0.447 µM (inconclusive); at Cytochrome P450 2D6, “inconclusive”.
For the compound `COc1cc2cc(c1Cl)N(C)C(=O)C[C@H](OC(=O)C(C)C)[C@]1(C)O[C@@H]1[C@@H](C)[C@H]1C[C@](O)(NC(=O)O1)[C@@H](OC)/C=C\C=C(\C)C2`, the half-maximal activity concentration (AC50) entry on Cytochrome P450 2C19 and on Cytochrome P450 2D6 was “inconclusive” each time.
On to `O=C(O)c1cc2ccccc2c(S(=O)(=O)O)c1O`, for which the AC50 result on Cytochrome P450 2D6 is “inconclusive”.
As to `O=C(Nc1ccc2ccccc2n1)c1ccccc1`, in data set [4], the AC50 is 77.5 µM (active).
Consider `COc1cc(-c2noc(C)c2-c2ccc(N(C)C)nc2)cc(OC)c1OC`, for which the EC50 with BJ [7] is 0.174 µM (active); in data set [9], 4.06 µM (inconclusive); in the data set on BJ [10], 15.7 µM (inconclusive). In addition, in data set [8], the IC50 was > 80 µM (inactive).
For the compound `CC(C)(C)c1ccc(OC(=O)Cn2c(C(F)(F)F)nc3ccccc32)cc1`, the concentration at half-maximal activity (AC50) on Cytochrome P450 2C9 was 0.891 µM (inconclusive); on Cytochrome P450 2C19, “inconclusive”; at Cytochrome P450 2D6 it was “inconclusive”.
In the case of `CN(C)CCNC(=O)c1cc2c(=O)n(C)c3ccccc3c2n1C`, the half-maximal activity concentration (AC50) in data set [3] was 16.2 µM (active).
